In patent publication US11759480B2, “Compositions and methods for CAR T cell therapy” (ENDOCYTE, INC., priority 2017, dated 2023):
Read-outs that look alike come from different tables or passages of the source.

Assays:
MDA-MB-231 tumors [1] = details: mouse, in vivo
Procedure: To evaluate whether mice with FITC-CAR-T therapy related sCRS can be rescued by using competitors which may displace EC17 from either FITC-CAR-T or FR+ tumor cells, 49 NSG mice bearing MDA-MB-231 tumors (150-250 mm3) were administered with excess FITC-CAR-T cells (8 million), 36 of them were then dosed with 500 nmol/kg EC17 48 hours post CAR-T administration, 6 of them were not dosed with EC17 and were used as “No EC17” control, and 7 of them were dosed with 260 umol/kg sodium fluorescein (no EC17 but Fluorescein) to test its toxicity. […] Each group was i.v. injected with 10 umol/kg of Leucovorin, or 10 umol/kg folic acid, or 260 umol/kg sodium fluorescein, or nothing as an un-rescued control. […] Mouse body weight changes were also monitored as the indication of toxicity. […] To evaluate whether the rescue injections affect the anti-tumor activity of FITC-CAR-T cells, these mice were dosed with 500 nmol/kg EC17 twice per week (days 9, 11, 15, 18, 22, 25, etc.) and the tumor size was monitored.

MDA-MB-231 tumors [2] = type: in vivo, NSG mice
Procedure: MDA-MB-231 tumors were generated by subcutaneous implantation of cultured cells at 2×10^6 in NSG mice.
FITC-CAR-T cells were prepared as described previously. After culturing in-vitro for 12-20 days, they were frozen and stored at −80° C. in a freezing reagent containing 50% heat-inactivated AB+ human serum, 40% T cell culture media, and 10% DMSO. Frozen CAR-T cells were quickly thawed at 37° C., washed twice with PBS, and used for animal injection.
In general, EC17/CAR-T therapy initiated when mouse tumors reached ˜200-250 mm^3 and weekly EC17 doses at 500 nmol/kg started 2 days after the CAR-T administration. All EC17 doses were given towards the end of day (˜3-4 PM) to allow cytokine release syndrome (CRS) to develop overnight. Sodium fluorescein rescue at various doses (0.06-60 μmol/kg) was administrated after the first dose of EC17, when the animals experienced a severe CRS of grade 3-4 on a 0-5 grading scale (FIG. 31). Plasma samples at various time points (3-27 hours) post sodium fluorescein rescue were collected for multiplex cytokine analysis.
Approximately 48 hours after CAR-T cell infusion, mice were separated into 3 groups. The first group (#1) was not dosed with EC17 and served as the CAR-T cell control, the second (#2) and the third (#3) groups were intravenously injected with a single dose of EC17 (500 nmol/kg). […] Group #2 then received a single intravenous sodium fluorescein (60 μmol/kg) while group #3 was left un-rescued. […] Three satellite animals from each group were euthanized to collect blood and organs for cytokine analysis and organ toxicity evaluation. Whole blood was obtained via cardiac puncture and collected into EDTA containing tubes. Twenty-seven hours after sodium fluorescein rescue, mice rescued with 60 μmol/kg sodium fluorescein in group #2 were recovering and sCRS scale decreased to grade 2, while mice without rescue in group #3 had worse sCRS (grade 3-4). At this time, 6 satellite mice from each group were euthanized for blood collection and organ evaluation. The remaining mice were dosed with a single dose of 500 nmol/kg EC17 every week if desired, and the EC17 dosing dates were labeled in FIG. 36 as dashed vertical lines occurring after the notation “EC17”. Tumor volume and body weight changes were monitored 2-3 times per week.
To evaluate whether a lower level of sodium fluorescein can also rescue mice under sCRS, the same rescue study was performed except that sodium fluorescein was dosed at 0.06, 0.6, and 6 μmol/kg.

[3] = system: naïve mice without tumors; assay: CAR-T cells with EC17 in naïve mice without tumors (Example 25); type: in vivo; details: 500 nmoles/kg three times per week
Procedure: Five million CAR-T cells were injected (i.v.) into naïve mice without tumors. 500 nmoles/kg EC17 was administrated three times per week. Mice were monitored for 5 weeks, and some were euthanized every week to evaluate organs.

OV90 = assay: EC17 dependent anti-tumor activity, OV90 xenograft (Example 26); type: in vivo, NSG mice; details: 500 nmoles/kg once per week, 5 million CAR-T
From the text: Immunodeficient NSG mice (Jackson Laboratory) were used to show the efficacy of CAR T cell anti-tumor activity with a single dose of EC17 per week. Two folate receptor expressing cancer cell lines were used to establish subcutaneous solid tumor xenografts: MDA-MB-231 has high folate receptor expression, while OV90 has low folate receptor expression. When tumor volume of around 100-250 mm^3 was reached, mice were divided into two groups. Mice in the “EC17 500 nmol/kg” group (nmol/kg is equivalent to nmoles/kg as used in this patent application for the bridge) were injected with 500 nmoles/kg of body weight of EC17, while mice in the “no EC17” group were not injected with EC17. Four hours later, mice in both groups were administered 5 million anti-FITC CAR-T cells. After initial administration of EC17 and CAR-T cells, only mice in the “EC17 500 nmol/kg” group were injected (i.v.) with 500 nmoles/kg of EC17 once per week. Anti-tumor efficacy was monitored by tumor volume.

MDA-MB-231 tumors [4] = assay: IFN-γ in blood versus EC17 dose level and presence of tumor (Example 24); type: in vivo, mice; details: 10 days after CAR-T injection, EC17 three times per week
Procedure: CAR-T cells were injected into naïve mice (8 million per mouse) and mice bearing MDA-MB-231 tumors (5 million per mouse). Various levels of EC17 were administrated three times per week. IFN-γ in blood was measured 10 days after CAR-T cell injection.

KB cells = assay: Anti-fluorescein CAR T cell activity against KB cells in vitro (Example 43); type: cell-based; details: CAR T:KB 10 to 1
Procedure: FR positive cancer cell lines (e.g. KB or MDA-MB-231 cells) were seeded at density of 10^4 cells/100 μl media into 96 well plates and grown overnight. Anti-fluorescein CAR T cells were added to each well in the absence or presence of bridge molecules. After co-incubation for 6-24 hours, plates were centrifuged at 350×g for 10 min to remove debris and supernatants were analyzed for lactate dehydrogenase release (cell death analysis) using Pierce™ LDH cytotoxicity assay kit (Thermo Fisher Scientific, MA) and interferon γ (IFNγ) levels using human IFNγ ELISA kit (Biolegend, CA), while pellets were either evaluated for CAR T cell activation by staining with anti-human CD69 APC (Clone: FN50, Biolegend, CA) or examined for CAR T cell proliferation by culturing for 5 days in TexMACS™ medium (Miltenyi Biotech Inc, CA) containing 1% penicillin and streptomycin sulfate and quantitating by flow cytometry using the intrinsic GFP fluorescence and staining with anti-human CD3 APC antibody (Clone:HIT3a, Biolegend, CA).

MDA-MB-231 = assay: CAR-T and EC17 therapy-related toxicity versus tumor size (Example 46); type: in vivo, NSG mice
Procedure: To explore whether CAR-T therapy related toxicity is dependent on tumor load, NSG mice were s.c. implanted with MDA-MB-231. Ten mice with different tumor sizes ranging between 150-900 mm^3 were selected for this study. For the CAR-T cells, 10.5 million GFP+FITC-CAR-T cells were i.v. injected followed by 500 nmol/kg EC17 administration 48 hours later (FIG. 71A). Body weights of mice were compared between before CAR-T injection and 18 hours post EC17 administration. […] With higher tumor burden, mice lost more body weight after CAR-T and EC17 treatment. […] Plasma samples were separated immediately and stored at −20° C. until the analysis of cytokine levels using a human cytokine detection kit (Biolegend). […] With higher tumor burden, more IL-6 was produced after CAR-T and EC17 treatment. IL-6 has been widely reported to be the predicting biomarker for severe cytokine release syndrome in human patients with liquid tumors when they are treated with conventional CAR-T therapy.

In the case of `O=C([O-])c1ccccc1-c1c2ccc(=O)cc-2oc2cc([O-])ccc12.[Na+].[Na+]` [sodium fluorescein], the “condition of mice (toxicity test)” value (MDA-MB-231 tumors [1]) is reported as “healthy”, the recovery (MDA-MB-231 tumors [2]; 0.06 μmol/kg) is reported as “slowest recovery” and the recovery (MDA-MB-231 tumors [2]; 6 μmol/kg) is reported as “recovered the fastest”. For the same molecule, the “time to near normal range of IFN-γ” value (MDA-MB-231 tumors [2]; 60 μmol/kg) was 27 h, the “time to normal range of IL-2, TNF-α, IL-3, GM-CSF, IL-6” value (MDA-MB-231 tumors [2]; 60 μmol/kg) was 7 h and the “human cytokine levels in blood” value (MDA-MB-231 tumors [2]; 60 μmol/kg, 7 hours and 27 hours post rescue) was “much lower than those in un-rescued mice”. The sCRS severity (MDA-MB-231 tumors [2]; 0.06, 0.6, 6 μmol/kg, ~8.3 million CAR-T) was “dose-dependent reduction of sCRS severity”, the sCRS grade (MDA-MB-231 tumors [2]; 7 hours after 60 μmol/kg rescue, 0-5 grading scale) was “low grade 3” and the sCRS grade (MDA-MB-231 tumors [2]; 27 hours after 60 μmol/kg rescue) was 2 grade. For the same molecule, the lung edema (MDA-MB-231 tumors [2]; 27 hours after rescue, 60 μmol/kg) was “lung edema was improved”, the “median effective dose (human cytokine levels in mouse blood)” value (MDA-MB-231 tumors [2]; IL-2, TNF-α, IFN-γ etc.) was “about 0.6 μmol/kg” and the “earliest cytokine response post rescue” value (MDA-MB-231 tumors [2]; key cytokines) was 3 h. The “effect on anti-tumor activity of EC17/CAR-T therapy” value (MDA-MB-231 tumors [2]; one dose 6 μmol/kg) was “didn't affect the anti-tumor activity” and the “effect on CAR-T anti-tumor activity” value (MDA-MB-231 tumors [2]; one dose 60 μmol/kg) was “did not interfere with CAR-T anti-tumor activity in vivo”.

With `Nc1nc2ncc(CNc3ccc(C(=O)NC(CCC(=O)NCCNC(=S)Nc4ccc(-c5c6ccc(=O)cc-6oc6cc(O)ccc56)c(C(=O)O)c4)C(=O)O)cc3)nc2c(=O)[nH]1` (stereo not drawn) [EC17, FITC-Folate] the “CAR-T cell proliferation (blood count, spleen size)” value [3] was “did not proliferate”, the body weight ([3]; 5 million CAR-T, 5 weeks) was “No apparent body weight loss” and the anti-tumor activity (OV90) was “EC17 dependent anti-tumor activity”. The “cytokine production (IFN-γ in blood)” value (MDA-MB-231 tumors [4]) was “dependent on both the bridge (EC17) dose level and the presence of the tumor”, the tumor growth (MDA-MB-231 tumors [2]; 500 nmol/kg SIW, ~10.4 million FITC-CAR-T) was “started to shrink and disappeared eventually” and the IFNγ production (KB cells; 100 nM) was “induced”. The “proliferation of anti-fluorescein CAR T cells” value (KB cells) was “induced”, the “cytokine release syndrome grade” value (MDA-MB-231; 18 hours after 500 nmol/kg, 10.5 million CAR-T) was 2 grade and the body weight changes (MDA-MB-231; tumors 150-900 mm^3) was “tumor size dependent”. For the same molecule, the “production of IL-6” value (MDA-MB-231; tumors 150-900 mm^3) was “tumor size dependent”.
